In one assay the target is JAK-2 enzyme (Homo sapiens, UniProt O60674). Briefly: JAK2 Inhibition Assay.
The target in a further assay is T1, JAK3 (Homo sapiens, UniProt P52333).
T1 sequence (P52333 1-1124): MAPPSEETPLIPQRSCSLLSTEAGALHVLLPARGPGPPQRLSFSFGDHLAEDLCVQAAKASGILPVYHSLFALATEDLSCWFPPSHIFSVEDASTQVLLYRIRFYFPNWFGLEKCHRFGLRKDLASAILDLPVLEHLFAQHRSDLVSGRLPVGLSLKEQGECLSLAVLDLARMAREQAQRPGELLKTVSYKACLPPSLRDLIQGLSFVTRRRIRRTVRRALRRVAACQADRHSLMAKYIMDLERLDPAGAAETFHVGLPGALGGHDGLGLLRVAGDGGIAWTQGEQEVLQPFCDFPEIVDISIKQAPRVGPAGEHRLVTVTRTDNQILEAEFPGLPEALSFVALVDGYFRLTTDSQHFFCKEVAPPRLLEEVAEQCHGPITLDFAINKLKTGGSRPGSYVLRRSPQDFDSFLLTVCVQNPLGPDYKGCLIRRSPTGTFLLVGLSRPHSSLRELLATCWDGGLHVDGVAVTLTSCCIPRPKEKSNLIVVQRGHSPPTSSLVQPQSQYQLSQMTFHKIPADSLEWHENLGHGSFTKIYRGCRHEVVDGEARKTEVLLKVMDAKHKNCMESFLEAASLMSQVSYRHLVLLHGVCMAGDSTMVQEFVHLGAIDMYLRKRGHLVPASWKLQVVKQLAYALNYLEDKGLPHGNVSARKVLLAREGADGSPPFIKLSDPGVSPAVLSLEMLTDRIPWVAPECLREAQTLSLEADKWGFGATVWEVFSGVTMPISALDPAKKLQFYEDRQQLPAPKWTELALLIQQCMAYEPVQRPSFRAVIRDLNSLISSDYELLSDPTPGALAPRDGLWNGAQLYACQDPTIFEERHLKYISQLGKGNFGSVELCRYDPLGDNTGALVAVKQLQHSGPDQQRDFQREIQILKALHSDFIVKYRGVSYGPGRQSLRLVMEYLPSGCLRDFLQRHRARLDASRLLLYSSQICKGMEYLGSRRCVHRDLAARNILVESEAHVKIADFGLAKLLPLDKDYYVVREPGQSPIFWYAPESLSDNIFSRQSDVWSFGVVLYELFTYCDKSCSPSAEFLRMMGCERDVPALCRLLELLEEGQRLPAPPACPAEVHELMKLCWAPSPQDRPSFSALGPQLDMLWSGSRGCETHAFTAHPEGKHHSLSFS
As to the kind of experiment: JAK3 Inhibition Assay. The note with it: 1 nM JAK3, 1 μM poly(Glu)4Tyr, 5 μM ATP, 25° C., 33P incorporation. In kind it is biochemical.

Sequence of JAK-2 enzyme (O60674 whole entry): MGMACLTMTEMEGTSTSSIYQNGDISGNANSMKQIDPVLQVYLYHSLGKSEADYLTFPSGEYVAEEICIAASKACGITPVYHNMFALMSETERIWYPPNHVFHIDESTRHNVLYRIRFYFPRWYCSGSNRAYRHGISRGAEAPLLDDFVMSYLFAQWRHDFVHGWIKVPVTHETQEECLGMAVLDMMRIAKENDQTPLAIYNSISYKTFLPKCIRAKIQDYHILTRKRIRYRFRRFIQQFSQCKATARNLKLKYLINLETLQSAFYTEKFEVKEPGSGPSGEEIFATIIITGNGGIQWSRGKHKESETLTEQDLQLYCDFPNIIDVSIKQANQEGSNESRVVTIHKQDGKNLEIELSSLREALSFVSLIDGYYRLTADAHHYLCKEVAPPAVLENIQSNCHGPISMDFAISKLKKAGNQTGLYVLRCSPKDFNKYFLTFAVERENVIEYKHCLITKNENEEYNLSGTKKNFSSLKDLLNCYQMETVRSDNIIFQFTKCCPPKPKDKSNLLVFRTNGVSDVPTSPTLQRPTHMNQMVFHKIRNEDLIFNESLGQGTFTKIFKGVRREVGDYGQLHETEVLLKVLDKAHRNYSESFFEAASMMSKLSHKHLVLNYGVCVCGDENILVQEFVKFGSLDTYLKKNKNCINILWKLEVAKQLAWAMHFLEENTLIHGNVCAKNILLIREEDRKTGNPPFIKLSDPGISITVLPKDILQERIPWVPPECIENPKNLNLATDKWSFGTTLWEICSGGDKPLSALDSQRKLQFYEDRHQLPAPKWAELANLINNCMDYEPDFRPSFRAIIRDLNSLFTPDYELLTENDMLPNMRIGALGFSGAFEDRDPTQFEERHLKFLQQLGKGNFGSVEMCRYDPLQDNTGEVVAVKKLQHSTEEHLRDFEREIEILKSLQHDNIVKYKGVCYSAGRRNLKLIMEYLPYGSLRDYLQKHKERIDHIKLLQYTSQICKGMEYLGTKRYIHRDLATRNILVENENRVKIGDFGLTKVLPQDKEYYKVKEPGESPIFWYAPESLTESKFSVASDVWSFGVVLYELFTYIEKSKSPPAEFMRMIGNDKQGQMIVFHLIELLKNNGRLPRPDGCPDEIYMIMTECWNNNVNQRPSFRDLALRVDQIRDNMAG
Procedure for JAK-2 enzyme: Reactions were carried out in a kinase buffer containing 100 mM HEPES (pH 7.4), 1 mM DTT, 10 mM MgCl2, 25 mM NaCl, and 0.01% BSA. Substrate concentrations in the assay were 5 μM ATP (200 uCi/μmole ATP) and 1 μM poly(Glu)4Tyr. Reactions were carried out at 25° C. and 1 nM JAK3.
To each well of a 96 well polycarbonate plate was added 1.5 μl of a candidate JAK3 inhibitor along with 50 μl of kinase buffer containing 2 μM poly(Glu)4Tyr and 10 μM ATP. This was then mixed and 50 μl of kinase buffer containing 2 nM JAK3 enzyme was added to start the reaction. After 20 minutes at room temperature (25° C.), the reaction was stopped with 50 μl of 20% trichloroacetic acid (TCA) that also contained 0.4 mM ATP. The entire contents of each well were then transferred to a 96 well glass fiber filter plate using a TomTek Cell Harvester. After washing, 60 μl of scintillation fluid was added and ^33P incorporation detected on a Perkin Elmer TopCount.

In the case of `C[C@H](Nc1cc(-c2c(N)nn3cccnc23)nc(OCC2CCC2)n1)c1ccc(F)cc1` [Compound 148], the inhibition constant (Ki) on JAK-2 enzyme lay in the range of 10 to 100 nM; on JAK3, 100 to 500 nM.

In the case of `CC(C)OCCOc1nc(N[C@@H](C)c2ccc(F)cc2)cc(-c2c(N)nn3cccnc23)n1` [Compound 149], the values for the inhibition constant (Ki) on JAK-2 enzyme and on JAK3 were less than 10 nM and 10 to 100 nM, respectively.

As to `C#CCOc1nc(N[C@@H](C)c2ccc(F)cc2)cc(-c2c(N)nn3cccnc23)n1` [Compound 150], the Ki at JAK-2 enzyme is less than 10 nM; on JAK3, 10 to 100 nM.

Take `CC#CCOc1nc(N[C@@H](C)c2ccc(F)cc2)cc(-c2c(N)nn3cccnc23)n1` [Compound 151]: the Ki on JAK-2 enzyme was 10 to 100 nM; on JAK3, 100 to 500 nM.

Regarding `CC(C)=CCOc1nc(N[C@@H](C)c2ccc(F)cc2)cc(-c2c(N)nn3cccnc23)n1` [Compound 152], the inhibitory constant (Ki) on JAK-2 enzyme and at JAK3 was 10 to 100 nM in each case.

In the case of `CCCOc1nc(N[C@@H](C)c2ccc(F)cc2)cc(-c2c(N)nn3cccnc23)n1` [Compound 153], the Ki was less than 10 nM at JAK-2 enzyme and 10 to 100 nM at JAK3.

`C[C@H](Nc1cc(-c2c(N)nn3cccnc23)nc(OCCCN(C)C)n1)c1ccc(F)cc1` [Compound 154]: the inhibition constant (Ki) on JAK-2 enzyme was less than 10 nM; on JAK3, 10 to 100 nM.

Take `CC#CCCOc1nc(N[C@@H](C)c2ccc(F)cc2)cc(-c2c(N)nn3cccnc23)n1` [Compound 155]: the values for the Ki at JAK-2 enzyme and on JAK3 were less than 10 nM and 100 to 500 nM, respectively.

Turning to `C[C@H](Nc1cc(-c2c(N)nn3cccnc23)nc(OCC(F)(F)F)n1)c1ccc(F)cc1` [Compound 156], the Ki is less than 10 nM on JAK-2 enzyme and 100 to 500 nM on JAK3.

As for `C[C@H](Nc1cc(-c2c(N)nn3cccnc23)nc(OCCC2CC2)n1)c1ccc(F)cc1` [Compound 157], the Ki at JAK-2 enzyme was 10 to 100 nM; on JAK3, 100 to 500 nM.

Turning to `CC1CC1COc1nc(N[C@@H](C)c2ccc(F)cc2)cc(-c2c(N)nn3cccnc23)n1` (stereo partly shown) [Compound 158], the inhibition constant (Ki) at JAK-2 enzyme lay in the range of 10 to 100 nM; at JAK3, 100 to 500 nM.

With `C[C@H](Nc1cc(-c2c(N)nn3cccnc23)nc(OC[C@H]2CO2)n1)c1ccc(F)cc1` [Compound 159], the Ki at JAK-2 enzyme was less than 10 nM; at JAK3, 100 to 500 nM.

For `C[C@H](Nc1cc(-c2c(N)nn3cccnc23)nc(OCCOC(C)(C)C)n1)c1ccc(F)cc1` [Compound 160], the Ki on JAK-2 enzyme lay in the range of 10 to 100 nM; at JAK3, 100 to 500 nM.

Regarding `C[C@H](Nc1cc(-c2c(N)nn3cccnc23)nc(O)n1)c1ccc(F)cc1` [Compound 161], the inhibition constant Ki was less than 10 nM at JAK-2 enzyme and 10 to 100 nM at JAK3.

With `CCC#CCOc1nc(N[C@@H](C)c2ccc(F)cc2)cc(-c2c(N)nn3cccnc23)n1` [Compound 162], the values for the Ki on JAK-2 enzyme and at JAK3 were 10 to 100 nM and 100 to 500 nM, respectively.

With `C[C@H](Nc1cc(-c2c(N)nn3cccnc23)nc(OC[C@@H]2CO2)n1)c1ccc(F)cc1` [Compound 163], the inhibition constant (Ki) at JAK-2 enzyme is 10 to 100 nM; on JAK3, 500 to 5000 nM.

Regarding `C[C@H](Nc1cc(-c2c(N)nn3cccnc23)nc(OCC2CCOC2)n1)c1ccc(F)cc1` (stereo partly shown) [Compound 164], the inhibitory constant (Ki) was less than 10 nM on JAK-2 enzyme and 10 to 100 nM on JAK3.

Regarding `CC/C=C\COc1nc(N[C@@H](C)c2ccc(F)cc2)cc(-c2c(N)nn3cccnc23)n1` [Compound 165], the Ki at JAK-2 enzyme is 10 to 100 nM; at JAK3, 100 to 500 nM.

For `C[C@H](Nc1cc(-c2c(N)nn3cccnc23)nc(OCC2CC2)n1)c1ccc(F)cc1` [Compound 166], the inhibition constant Ki at JAK-2 enzyme is less than 10 nM; at JAK3, 10 to 100 nM.

As for `CC(C)CCCOc1nc(N[C@@H](C)c2ccc(F)cc2)cc(-c2c(N)nn3cccnc23)n1` [Compound 167], the figures for the Ki on JAK-2 enzyme and at JAK3 were 10 to 100 nM and 500 to 5000 nM, respectively.

On to `C[C@H](Nc1cc(-c2c(N)nn3cccnc23)nc(OCC2COC(C)(C)O2)n1)c1ccc(F)cc1` (stereo partly shown) [Compound 168], for which the values for the Ki at JAK-2 enzyme and at JAK3 were less than 10 nM and 10 to 100 nM, respectively.

Regarding `C=CCOc1nc(N[C@@H](C)c2ccc(F)cc2)cc(-c2c(N)nn3cccnc23)n1` [Compound 169], the values for the inhibitory constant (Ki) at JAK-2 enzyme and at JAK3 were less than 10 nM and 10 to 100 nM, respectively.

Regarding `C=CCCOc1nc(N[C@@H](C)c2ccc(F)cc2)cc(-c2c(N)nn3cccnc23)n1` [Compound 170], the inhibition constant (Ki) at JAK-2 enzyme was less than 10 nM; on JAK3 it was 10 to 100 nM.

Turning to `C[C@H](Nc1cc(-c2c(N)nn3cccnc23)nc(OCC2CCCN(C)C2)n1)c1ccc(F)cc1` (stereo partly shown) [Compound 171], the inhibition constant (Ki) at JAK-2 enzyme and on JAK3 was 10 to 100 nM in each case.

In the case of `CSCCCOc1nc(N[C@@H](C)c2ccc(F)cc2)cc(-c2c(N)nn3cccnc23)n1` [Compound 172], the Ki on JAK-2 enzyme is less than 10 nM; at JAK3, 10 to 100 nM.

For the compound `CSCCOc1nc(N[C@@H](C)c2ccc(F)cc2)cc(-c2c(N)nn3cccnc23)n1` [Compound 173], the Ki is less than 10 nM on JAK-2 enzyme and 10 to 100 nM at JAK3.

With `C=COCCCCOc1nc(N[C@@H](C)c2ccc(F)cc2)cc(-c2c(N)nn3cccnc23)n1` [Compound 174], the Ki at JAK-2 enzyme lay in the range of 10 to 100 nM; at JAK3, 100 to 500 nM.

As to `C=C(C)COc1nc(N[C@@H](C)c2ccc(F)cc2)cc(-c2c(N)nn3cccnc23)n1` [Compound 175], the values for the inhibitory constant (Ki) on JAK-2 enzyme and at JAK3 were less than 10 nM and 100 to 500 nM, respectively.

`C[C@H](Nc1cc(-c2c(N)nn3cccnc23)nc(OCC2CCCC2)n1)c1ccc(F)cc1` [Compound 176]: the inhibitory constant (Ki) at JAK-2 enzyme lay within 10 to 100 nM; on JAK3, 100 to 500 nM.

On to `C[C@H](Nc1cc(-c2c(N)nn3cccnc23)nc(OCCCC2CCCC2)n1)c1ccc(F)cc1` [Compound 177], for which the figures for the Ki on JAK-2 enzyme and at JAK3 were 100 to 500 nM and 500 to 5000 nM, respectively.

For `COC(C)(C)CCOc1nc(N[C@@H](C)c2ccc(F)cc2)cc(-c2c(N)nn3cccnc23)n1` [Compound 178], the values for the Ki at JAK-2 enzyme and on JAK3 were less than 10 nM and 10 to 100 nM, respectively.

Turning to `CCC#CC(C)Oc1nc(N[C@@H](C)c2ccc(F)cc2)cc(-c2c(N)nn3cccnc23)n1` (stereo partly shown) [Compound 179], the Ki was 10 to 100 nM at JAK-2 enzyme and 500 to 5000 nM on JAK3.

Take `C#CC(CC)Oc1nc(N[C@@H](C)c2ccc(F)cc2)cc(-c2c(N)nn3cccnc23)n1` (stereo partly shown) [Compound 180]: the Ki at JAK-2 enzyme was less than 10 nM; on JAK3, 100 to 500 nM.

As to `CC#CC(C)Oc1nc(N[C@@H](C)c2ccc(F)cc2)cc(-c2c(N)nn3cccnc23)n1` (stereo partly shown) [Compound 181], the Ki on JAK-2 enzyme was 10 to 100 nM; on JAK3 it was 100 to 500 nM.

As to `C=CCCCOc1nc(N[C@@H](C)c2ccc(F)cc2)cc(-c2c(N)nn3cccnc23)n1` [Compound 182], the Ki was in the range of 10 to 100 nM at JAK-2 enzyme and 100 to 500 nM at JAK3.

On to `C#CCCCOc1nc(N[C@@H](C)c2ccc(F)cc2)cc(-c2c(N)nn3cccnc23)n1` [Compound 183], for which the Ki at JAK-2 enzyme was less than 10 nM; at JAK3, 10 to 100 nM.

Consider `COCCC(=O)Nc1nc(N[C@@H](C)c2ccc(F)cc2F)cc(-c2cnn3cccnc23)n1` [Compound 184], for which the values for the Ki on JAK-2 enzyme and on JAK3 were less than 10 nM and 100 to 500 nM, respectively.

For `C[C@H](Nc1cc(-c2cnn3cccnc23)nc(NC(=O)CCN2CCCC2=O)n1)c1ccc(F)cc1F` [Compound 185], the Ki on JAK-2 enzyme was less than 10 nM; at JAK3, 100 to 500 nM.

For `C[C@H](Nc1cc(-c2cnn3cccnc23)nc(NC(=O)CN2CCOCC2)n1)c1ccc(F)cc1F` [Compound 186], the Ki at JAK-2 enzyme was less than 10 nM; on JAK3, 100 to 500 nM.

`COCC(=O)Nc1nc(N[C@@H](C)c2ccc(F)cc2F)cc(-c2cnn3cccnc23)n1` [Compound 187]: the results for the inhibition constant Ki on JAK-2 enzyme and at JAK3 were less than 10 nM and 10 to 100 nM, respectively.

Regarding `CCC(=O)Nc1nc(N[C@@H](C)c2ccc(F)cc2F)cc(-c2cnn3cccnc23)n1` [Compound 188], the Ki is less than 10 nM on JAK-2 enzyme and 100 to 500 nM on JAK3.

For `C[C@H](Nc1cc(-c2c(N)nn3cccnc23)nc(N2CC[C@@H](F)C2)n1)c1ccc(F)cc1` [Compound 189], the figures for the Ki at JAK-2 enzyme and on JAK3 were less than 10 nM and 100 to 500 nM, respectively.

In the case of `C[C@H](Nc1cc(-c2c(N)nn3cccnc23)nc(N2CCC(N(C)C)C2)n1)c1ccc(F)cc1` (stereo partly shown) [Compound 190], the figures for the Ki on JAK-2 enzyme and on JAK3 were less than 10 nM and 10 to 100 nM, respectively.

In the case of `C[C@H](Nc1cc(-c2c(N)nn3cccnc23)nc(N2CC[C@H](F)C2)n1)c1ccc(F)cc1` [Compound 191], the Ki on JAK-2 enzyme lay in the range of 10 to 100 nM; at JAK3 it was 100 to 500 nM.
